Read-outs that look alike come from different tables or passages of the source.
Assays:
Assay in all cases: biochemical
Set-up in all cases: KINOMEscan scanMAX competition binding, DNA-tagged kinases, qPCR read-out, percent control at 300 nM
NEK4 = NEK4 (Homo sapiens, UniProt P51957)
PFTAIRE2 = biological target: T1, PFTAIRE2 (Homo sapiens, UniProt Q96Q40)
T1 construct: gene CDK15

p38-delta = biological target: T2, p38-delta (Homo sapiens, UniProt O15264)
T2 construct: gene MAPK13
T2 sequence (O15264 1-365): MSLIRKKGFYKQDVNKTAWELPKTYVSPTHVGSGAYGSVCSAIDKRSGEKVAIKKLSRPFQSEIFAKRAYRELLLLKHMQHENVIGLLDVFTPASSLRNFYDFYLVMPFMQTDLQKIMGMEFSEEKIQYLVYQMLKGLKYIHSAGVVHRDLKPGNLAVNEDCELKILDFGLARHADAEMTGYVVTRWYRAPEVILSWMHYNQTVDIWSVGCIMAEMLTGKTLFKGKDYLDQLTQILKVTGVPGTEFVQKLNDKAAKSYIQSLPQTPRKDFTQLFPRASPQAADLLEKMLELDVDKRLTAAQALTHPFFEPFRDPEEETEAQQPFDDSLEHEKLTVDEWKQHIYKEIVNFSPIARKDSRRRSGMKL

PIK4CB = biological target: T3, PIK4CB (Homo sapiens, UniProt Q9UBF8)
T3 construct: gene PI4KB

[1] = biological target: T4, RSK1(Kin.Dom.1-N-terminal) (Homo sapiens, UniProt Q15418)
T4 construct: gene RPS6KA1; Kin.Dom.1-N-terminal

INSR = INSR (Homo sapiens, UniProt P06213)
PAK6 = PAK6 (Homo sapiens, UniProt Q9NQU5)
BIKE = biological target: T5, BIKE (Homo sapiens, UniProt Q9NSY1)
T5 construct: gene BMP2K

STK16 = STK16 (Homo sapiens, UniProt O75716)
[2] = biological target: T6, ABL1(H396P)-phosphorylated (Homo sapiens, UniProt P00519, H396P)
T6 construct: phosphorylated

FLT3(K663Q) = biological target: T7, FLT3(K663Q) (Homo sapiens, UniProt P36888, K663Q)
T7 sequence (P36888 1-993 K663Q): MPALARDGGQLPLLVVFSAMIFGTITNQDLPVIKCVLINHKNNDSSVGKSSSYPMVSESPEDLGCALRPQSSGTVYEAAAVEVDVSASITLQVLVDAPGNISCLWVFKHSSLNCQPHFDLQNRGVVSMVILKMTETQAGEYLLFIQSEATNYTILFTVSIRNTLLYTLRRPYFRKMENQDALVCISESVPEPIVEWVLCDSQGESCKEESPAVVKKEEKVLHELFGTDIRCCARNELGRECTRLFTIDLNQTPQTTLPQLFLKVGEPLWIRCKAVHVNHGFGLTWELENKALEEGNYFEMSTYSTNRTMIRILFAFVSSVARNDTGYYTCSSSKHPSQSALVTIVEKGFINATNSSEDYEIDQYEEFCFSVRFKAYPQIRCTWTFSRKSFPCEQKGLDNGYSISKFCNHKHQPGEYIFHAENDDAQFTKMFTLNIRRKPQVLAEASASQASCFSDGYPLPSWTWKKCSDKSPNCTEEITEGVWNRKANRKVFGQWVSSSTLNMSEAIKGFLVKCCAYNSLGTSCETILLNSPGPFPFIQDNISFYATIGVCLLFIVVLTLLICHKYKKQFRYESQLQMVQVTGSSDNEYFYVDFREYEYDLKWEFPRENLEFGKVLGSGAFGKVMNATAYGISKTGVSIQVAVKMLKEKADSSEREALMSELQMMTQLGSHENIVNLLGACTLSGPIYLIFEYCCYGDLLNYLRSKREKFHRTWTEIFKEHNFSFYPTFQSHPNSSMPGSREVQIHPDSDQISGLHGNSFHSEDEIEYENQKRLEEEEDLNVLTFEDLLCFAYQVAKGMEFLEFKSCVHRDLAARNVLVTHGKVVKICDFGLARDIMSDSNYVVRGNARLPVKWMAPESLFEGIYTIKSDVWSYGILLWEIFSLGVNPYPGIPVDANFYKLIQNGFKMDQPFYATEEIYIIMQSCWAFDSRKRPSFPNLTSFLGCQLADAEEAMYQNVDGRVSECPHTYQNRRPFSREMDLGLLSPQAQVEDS

RET(M918T) = RET(M918T) (Homo sapiens, UniProt P07949, M918T)
TNK2 = TNK2 (Homo sapiens, UniProt Q07912)
[3] = read-out: Percent control / Acalabrutinib
[4] = read-out: Percent control / Ibrutinib
[5] = read-out: Percent control / Tirabrutinib
[6] = read-out: Percent control / Zanubrutinib

Sequence of NEK4 (P51957 whole entry): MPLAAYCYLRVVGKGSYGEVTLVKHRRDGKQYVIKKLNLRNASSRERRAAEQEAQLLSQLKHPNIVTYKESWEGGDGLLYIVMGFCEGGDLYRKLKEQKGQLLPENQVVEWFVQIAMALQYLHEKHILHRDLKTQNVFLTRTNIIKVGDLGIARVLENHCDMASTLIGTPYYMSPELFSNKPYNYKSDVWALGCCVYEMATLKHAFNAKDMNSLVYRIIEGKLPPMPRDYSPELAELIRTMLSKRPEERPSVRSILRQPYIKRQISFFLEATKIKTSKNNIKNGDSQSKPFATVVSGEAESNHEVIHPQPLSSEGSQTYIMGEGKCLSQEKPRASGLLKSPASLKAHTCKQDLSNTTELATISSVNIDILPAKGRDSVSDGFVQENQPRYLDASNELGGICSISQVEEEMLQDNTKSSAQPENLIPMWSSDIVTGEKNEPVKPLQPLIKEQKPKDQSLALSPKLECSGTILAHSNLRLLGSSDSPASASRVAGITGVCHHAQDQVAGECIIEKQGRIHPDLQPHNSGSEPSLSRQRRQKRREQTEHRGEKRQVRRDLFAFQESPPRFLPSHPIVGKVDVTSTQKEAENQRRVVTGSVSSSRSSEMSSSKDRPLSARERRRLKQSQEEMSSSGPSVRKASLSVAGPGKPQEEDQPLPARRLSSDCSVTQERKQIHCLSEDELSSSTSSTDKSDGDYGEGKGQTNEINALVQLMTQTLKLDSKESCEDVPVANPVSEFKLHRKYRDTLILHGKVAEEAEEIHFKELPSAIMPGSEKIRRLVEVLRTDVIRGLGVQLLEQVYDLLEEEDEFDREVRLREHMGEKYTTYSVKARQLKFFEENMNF
Sequence of INSR (P06213 whole entry): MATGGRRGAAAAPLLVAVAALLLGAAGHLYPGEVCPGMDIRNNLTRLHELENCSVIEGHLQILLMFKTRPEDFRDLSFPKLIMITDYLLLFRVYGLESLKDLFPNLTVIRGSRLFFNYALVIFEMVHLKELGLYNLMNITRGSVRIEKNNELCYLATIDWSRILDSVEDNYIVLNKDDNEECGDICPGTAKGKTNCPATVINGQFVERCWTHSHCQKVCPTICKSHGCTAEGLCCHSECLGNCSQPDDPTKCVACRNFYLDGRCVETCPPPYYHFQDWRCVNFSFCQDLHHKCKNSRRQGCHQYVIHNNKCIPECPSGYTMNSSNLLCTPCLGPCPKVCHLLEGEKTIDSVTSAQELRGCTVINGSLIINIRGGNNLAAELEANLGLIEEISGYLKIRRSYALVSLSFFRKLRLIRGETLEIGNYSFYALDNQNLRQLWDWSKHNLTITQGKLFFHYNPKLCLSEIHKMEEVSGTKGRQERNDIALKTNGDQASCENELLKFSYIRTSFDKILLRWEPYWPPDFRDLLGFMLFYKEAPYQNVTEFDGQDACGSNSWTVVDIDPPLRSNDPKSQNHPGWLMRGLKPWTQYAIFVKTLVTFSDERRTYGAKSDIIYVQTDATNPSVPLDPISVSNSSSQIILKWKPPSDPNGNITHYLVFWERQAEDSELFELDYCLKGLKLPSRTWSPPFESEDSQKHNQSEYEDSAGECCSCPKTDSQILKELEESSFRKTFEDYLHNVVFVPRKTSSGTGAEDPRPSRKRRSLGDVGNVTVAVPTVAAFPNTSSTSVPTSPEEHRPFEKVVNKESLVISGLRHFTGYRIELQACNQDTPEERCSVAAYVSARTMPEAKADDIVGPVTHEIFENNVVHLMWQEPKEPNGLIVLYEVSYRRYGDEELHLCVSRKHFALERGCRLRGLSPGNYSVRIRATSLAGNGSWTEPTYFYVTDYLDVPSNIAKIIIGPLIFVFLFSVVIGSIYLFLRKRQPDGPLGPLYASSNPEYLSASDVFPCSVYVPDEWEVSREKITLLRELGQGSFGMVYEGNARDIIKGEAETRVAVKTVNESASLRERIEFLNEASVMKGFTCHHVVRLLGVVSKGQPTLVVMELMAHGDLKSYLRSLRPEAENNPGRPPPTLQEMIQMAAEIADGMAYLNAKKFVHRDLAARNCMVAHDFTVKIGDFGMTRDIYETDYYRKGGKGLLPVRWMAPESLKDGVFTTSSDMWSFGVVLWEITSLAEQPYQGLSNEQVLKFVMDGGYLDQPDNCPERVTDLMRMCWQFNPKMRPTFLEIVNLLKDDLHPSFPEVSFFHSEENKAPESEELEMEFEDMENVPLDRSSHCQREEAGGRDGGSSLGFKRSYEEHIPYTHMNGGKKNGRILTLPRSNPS
Sequence of STK16 (O75716 whole entry): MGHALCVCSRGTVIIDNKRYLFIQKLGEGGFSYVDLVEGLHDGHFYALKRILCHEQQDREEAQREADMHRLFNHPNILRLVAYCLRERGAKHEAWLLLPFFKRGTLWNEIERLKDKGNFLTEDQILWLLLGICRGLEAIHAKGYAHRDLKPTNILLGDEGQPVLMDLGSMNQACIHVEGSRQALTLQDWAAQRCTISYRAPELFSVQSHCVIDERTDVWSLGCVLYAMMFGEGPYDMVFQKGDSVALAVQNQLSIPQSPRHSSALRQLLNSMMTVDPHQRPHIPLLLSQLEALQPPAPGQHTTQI
Sequence of RET(M918T) (P07949 whole entry M918T): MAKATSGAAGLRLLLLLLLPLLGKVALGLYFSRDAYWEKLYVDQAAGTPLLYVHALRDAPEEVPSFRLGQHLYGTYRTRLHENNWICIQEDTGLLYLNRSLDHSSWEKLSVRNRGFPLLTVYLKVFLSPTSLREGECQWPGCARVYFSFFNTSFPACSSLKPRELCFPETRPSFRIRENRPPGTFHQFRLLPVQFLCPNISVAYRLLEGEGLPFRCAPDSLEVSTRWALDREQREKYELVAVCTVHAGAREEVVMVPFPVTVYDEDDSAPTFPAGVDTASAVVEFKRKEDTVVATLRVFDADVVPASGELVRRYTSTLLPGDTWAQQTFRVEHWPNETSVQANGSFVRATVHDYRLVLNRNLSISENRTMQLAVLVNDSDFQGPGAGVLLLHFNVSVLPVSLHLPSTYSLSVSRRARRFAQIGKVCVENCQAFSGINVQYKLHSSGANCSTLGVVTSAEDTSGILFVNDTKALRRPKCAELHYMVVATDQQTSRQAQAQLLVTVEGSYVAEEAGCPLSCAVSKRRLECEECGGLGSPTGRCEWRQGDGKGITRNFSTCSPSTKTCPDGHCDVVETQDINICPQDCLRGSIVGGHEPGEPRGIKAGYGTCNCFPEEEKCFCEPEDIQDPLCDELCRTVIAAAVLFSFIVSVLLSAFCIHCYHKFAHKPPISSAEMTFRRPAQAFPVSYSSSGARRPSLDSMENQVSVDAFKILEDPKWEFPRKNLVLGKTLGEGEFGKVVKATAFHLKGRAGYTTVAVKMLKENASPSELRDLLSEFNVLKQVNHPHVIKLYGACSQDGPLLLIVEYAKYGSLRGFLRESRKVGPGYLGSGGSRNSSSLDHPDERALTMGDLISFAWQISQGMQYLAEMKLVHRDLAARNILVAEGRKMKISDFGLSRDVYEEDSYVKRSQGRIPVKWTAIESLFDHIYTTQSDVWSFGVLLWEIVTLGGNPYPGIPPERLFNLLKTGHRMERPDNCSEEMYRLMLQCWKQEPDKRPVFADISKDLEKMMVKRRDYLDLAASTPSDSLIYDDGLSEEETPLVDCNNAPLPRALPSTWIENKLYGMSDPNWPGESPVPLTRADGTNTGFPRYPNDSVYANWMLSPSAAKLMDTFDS
T1 sequence (Q96Q40 whole entry): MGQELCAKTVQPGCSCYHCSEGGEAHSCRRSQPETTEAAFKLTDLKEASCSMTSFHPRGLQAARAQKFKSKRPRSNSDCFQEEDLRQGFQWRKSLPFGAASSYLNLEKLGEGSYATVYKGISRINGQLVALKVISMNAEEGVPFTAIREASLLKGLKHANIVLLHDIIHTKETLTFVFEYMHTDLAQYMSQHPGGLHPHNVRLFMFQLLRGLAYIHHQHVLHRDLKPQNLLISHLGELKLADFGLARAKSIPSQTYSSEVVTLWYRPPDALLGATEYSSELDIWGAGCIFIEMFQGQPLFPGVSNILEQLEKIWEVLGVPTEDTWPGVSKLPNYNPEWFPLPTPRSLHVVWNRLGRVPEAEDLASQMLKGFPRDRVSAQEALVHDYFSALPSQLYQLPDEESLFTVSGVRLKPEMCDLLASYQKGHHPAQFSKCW
Sequence of PAK6 (Q9NQU5 whole entry): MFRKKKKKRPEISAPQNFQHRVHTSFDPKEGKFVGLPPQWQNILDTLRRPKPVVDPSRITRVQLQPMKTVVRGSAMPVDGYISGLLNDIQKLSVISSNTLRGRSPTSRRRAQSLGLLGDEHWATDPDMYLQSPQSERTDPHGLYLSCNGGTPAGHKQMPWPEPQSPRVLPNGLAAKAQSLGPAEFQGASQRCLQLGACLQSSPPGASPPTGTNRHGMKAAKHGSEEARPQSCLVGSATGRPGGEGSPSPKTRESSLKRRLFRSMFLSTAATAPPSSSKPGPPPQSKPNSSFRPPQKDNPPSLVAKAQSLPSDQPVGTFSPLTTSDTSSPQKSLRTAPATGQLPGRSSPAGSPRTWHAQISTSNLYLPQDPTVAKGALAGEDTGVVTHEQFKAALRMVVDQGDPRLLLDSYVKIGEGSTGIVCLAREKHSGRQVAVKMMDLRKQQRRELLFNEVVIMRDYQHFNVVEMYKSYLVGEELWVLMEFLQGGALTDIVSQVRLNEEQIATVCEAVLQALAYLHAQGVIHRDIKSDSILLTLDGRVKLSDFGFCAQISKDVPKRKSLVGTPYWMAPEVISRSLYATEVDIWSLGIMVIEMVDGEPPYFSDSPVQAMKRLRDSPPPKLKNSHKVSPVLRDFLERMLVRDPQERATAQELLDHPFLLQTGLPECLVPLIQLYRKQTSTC

Compound `CC#CC(=O)N1CCC[C@H]1c1nc(-c2ccc(C(=O)Nc3ccccn3)cc2)c2c(N)nccn12` [Acalabrutinib] has a remaining binding at 0.3 µM (NEK4; [3]) of 88%, a remaining binding at 0.3 µM (PFTAIRE2; [3]) of 82% and a remaining binding at 0.3 µM (p38-delta; [3]) of 95%. The remaining binding at 0.3 µM (PIK4CB; [3]) was 72%, the remaining binding at 0.3 µM [1, 3] was 79% and the remaining binding at 0.3 µM (INSR; [3]) was 93%. For the same compound, the remaining binding at 0.3 µM (PAK6; [3]) was 88%, the remaining binding at 0.3 µM (BIKE; [3]) was 94% and the remaining binding at 0.3 µM (STK16; [3]) was 86%. The remaining binding at 0.3 µM [2, 3] was 95% and the remaining binding at 0.3 µM (FLT3(K663Q); [3]) was 87%.

`C=CC(=O)N1CCC[C@@H](n2nc(-c3ccc(Oc4ccccc4)cc3)c3c(N)ncnc32)C1` [Ibrutinib] gave a remaining binding at 0.3 µM (PFTAIRE2; [4]) of 89%, a remaining binding at 0.3 µM (RET(M918T); [4]) of 32% and a remaining binding at 0.3 µM [1, 4] of 98%. It also gave a remaining binding at 0.3 µM (TNK2; [4]) of 48%, a remaining binding at 0.3 µM (INSR; [4]) of 92% and a remaining binding at 0.3 µM (BIKE; [4]) of 66%. For the same compound, the remaining binding at 0.3 µM (STK16; [4]) was 98% and the remaining binding at 0.3 µM (FLT3(K663Q); [4]) was 45%.

With `CC#CC(=O)N1CC[C@@H](n2c(=O)n(-c3ccc(Oc4ccccc4)cc3)c3c(N)ncnc32)C1` [Tirabrutinib] the remaining binding at 0.3 µM (NEK4; [5]) was 99%, the remaining binding at 0.3 µM (PFTAIRE2; [5]) was 99% and the remaining binding at 0.3 µM (p38-delta; [5]) was 94%. For the same compound, the remaining binding at 0.3 µM (RET(M918T); [5]) was 91%, the remaining binding at 0.3 µM (PIK4CB; [5]) was 79% and the remaining binding at 0.3 µM (TNK2; [5]) was 93%. The remaining binding at 0.3 µM (INSR; [5]) was 72%, the remaining binding at 0.3 µM (PAK6; [5]) was 98% and the remaining binding at 0.3 µM (BIKE; [5]) was 88%. For the same compound, the remaining binding at 0.3 µM (STK16; [5]) was 82% and the remaining binding at 0.3 µM [2, 5] was 92%.

`C=CC(=O)N1CCC([C@@H]2CCNc3c(C(N)=O)c(-c4ccc(Oc5ccccc5)cc4)nn32)CC1` [Zanubrutinib] showed a remaining binding at 0.3 µM (NEK4; [6]) of 100%, a remaining binding at 0.3 µM (p38-delta; [6]) of 100% and a remaining binding at 0.3 µM (RET(M918T); [6]) of 92%. It also gave a remaining binding at 0.3 µM (PIK4CB; [6]) of 94%, a remaining binding at 0.3 µM [1, 6] of 74% and a remaining binding at 0.3 µM (TNK2; [6]) of 90%. It also gave a remaining binding at 0.3 µM (INSR; [6]) of 100%, a remaining binding at 0.3 µM (PAK6; [6]) of 91% and a remaining binding at 0.3 µM (STK16; [6]) of 100%. The remaining binding at 0.3 µM [2, 6] was 72% and the remaining binding at 0.3 µM (FLT3(K663Q); [6]) was 61%.

From paper PMC10004634 (PLOS ONE, 2023)
